Laboratory results published in patent US5994365A, “Substituted diazaanthracene compounds having pharmaceutical utility” (Diazans Limited, priority 1998, dated 1999).
“And” between values parts separate entries of the source, which are not always exact repeats. Equal values may be shown once.

Legend:
T. glabrata ATCC 90030 = assay: In vitro antifungal susceptibility assay adapted from NCCLS (MIC); format: cell-based, Torulopsis glabrata; conditions: RPMI-1640
Procedure: Compounds of the invention also display antifungal activities. […] Using C. albicans ATCC® 90028, C. neoformans ATCC® 90112 and T. glabrata ATCC® 90030, the protocol is performed as follows:
Prepare 0.0128 g DAA in 10 mL dH2 O (or other if H2 O insoluble)=1280 μg/mL (stock solution). Dilute DAA stock solution 1:10 with RPMI-1640: 0.5 mL DAA stock solution+4.5 mL RPMI-1640=128 μg/mL (DAA working solution).
Inoculate rows A-H, columns 2-12 with 100 μl of RPMI-1640 using Eppendorf repeater pipette. Inoculate rows A-C columns 1 and 2 with 100 μl of 1st antibiotic (i.e. DAA-1) using electronic pipette. Inoculate rows E-G columns 1 and 2 with 100 μl of 2nd antibiotic (i.e. DAA-2) using electronic pipette. […] Plate is now ready for fungal inocula, which involves pipetting 100 μl of the inocula into all wells in rows A-C columns 1-12 and rows E-G columns 1-12. […]
Five colonies greater than 1 mm in diameter are suspended in a spectrophotometer cuvette containing 5 mL of sterile, 0.85% saline (colonies are obtained from 24 hrs. old Candida and Torulopsis cultures, while Cryptococcus colonies are chosen from 48 hrs. old cultures). Spectrophotometer is set to read % transmission at a wavelength of 530 nm, and is standardized using two cuvettes. […] Fungal inoculum is now prepared and ready to be introduced to microplates. […]

[1] = test system: Methicillin-resistant Staph aureus (MRSA); assay: Broth microdilution (NCCLS guidelines), MIC; format: cell-based, Staphylococcus aureus
Procedure: The dimer product of Example 15 was obtained in powder form. A stock solution of 1280 mg/L of the dimer in dimethylsulfoxide (DMSO) was prepared and stored at room temperature in a foil-wrapped screw-capped tube (10 ml). Subsequent dilutions were prepared using cation-adjusted Mueller-Hinton broth (50 mg/L Mg). […] It was resuspended upon mixing each time an aliquot was taken from the solution.
Approximately 100 varied bacterial isolates were initially collected for screening, along with 9 ATCC organisms. Forty additional strains of Staphylococcus species were subsequently screened. All isolates were identified according to generally accepted lab protocol.
(§1) Broth microdilution was performed according to NCCLS guidelines. Microdilution panels were prepared using doubling dilutions of the dimer in ~250 μl plastic, 96-well trays. Inoculum suspension equal to a 0.5 McFarland standard were further diluted and added to the microdilution trays to achieve a final inoculum of 5×10^5 CFU/ml (5×10^4 CFU/well). Colony counts were performed to confirm the final inoculum, as well as its purity. Each strain was also tested in a growth control well containing only MHB for viability.
Microdilution trays were incubated at 35° C. in ambient air or 5% CO2 as appropriate for 16-20 hours. After incubation, the minimal inhibitory concentration (MIC) was defined as the lowest concentration of the dimer with no evidence of growth. Since 10 or more strains of most organisms were tested; a range of MICs was determined for each organism, as well as the concentration of the dimer that inhibited 50% of the strains (MIC50) and the concentration of the dimer that inhibited 90% of the strains (MIC90).

Staphylococcus species = assay: Effect of age of the dimer solution on MIC (stability of the solution); format: physicochemical; conditions: stored at RT in foil wrapped tube
Excerpt: The dimer solution was two weeks old at this time. When the additional Staph strains were then retested using a freshly made solution of the dimer, the MICs were lower (see Table E). The stability of the solution stored at RT in a foil wrapped tube could be a variable contributing to the discrepancy between MICs.

[2] = test system: Staneg (coagulase negative Staph); assay: Minimal bactericidal concentration (MBC), 99.9% kill; format: cell-based, Coagulase negative staphylococci; parameters: unit not given here
Procedure: as §1
Various isolates were also tested for minimal bactericidal concentration (MBC) (see Tables D and F).
Subbed clear wells (50 μl) Inoculum 5 × 10^4 /well
99.9% kill = 50 cols/well
Subbed 50 μl of ≤5 clear wells

[3] = Table C, 10 strains, solution 14 days old
[4] = Table E, 10 strains, fresh solution

“10,10'-bis(3,6-dimethyl-5,10-dihydro-1,8-diazaanthracen-5-one) and 5,5'-bis(3,6-dimethyl-5,10-dihydro-1,8-diazaanthracen-10-one) [Example 15]” showed an MIC (T. glabrata ATCC 90030) of 16 mg/L, an MIC50 ([1]; Table A, 12 strains) of 0.5 mg/L and an MIC90 ([1]; Table A, 12 strains) of 1.0 mg/L. The “Range of MICs” value ([1]; Table A, 12 strains) was 0.25 to 1.0 mg/L, the MIC ([1]; Table A, ATCC MRSA 33591) was 0.5 mg/L and the MIC50 [1, 3] was > 16 mg/L. For the same substance, the MIC90 [1, 3] was > 16 mg/L, the “Range of MICs” value ([1]; Table C, 10 strains, solution 14 days old, in µg/mL) was > 16 and the MICs ([1]; Table C, ATCC MRSA 33591, solution 14 days old, listed as Dimer, in µg/mL) was 8 and 16. The MIC50 [1, 4] was 2 mg/L, the MIC90 [1, 4] was 8 mg/L and the “Range of MICs” value ([1]; Table E, 10 strains, fresh solution, in µg/mL) was 0.5-8. The MICs ([1]; Table E, ATCC MRSA 33591 (×2), fresh solution, in µg/mL) was 1.0, the MIC ([1]; Table F, MRSA 2) was 8 mg/L and the MIC ([1]; Table F, MRSA 4) was 2 mg/L. For the same substance, the MIC ([1]; Table F, MRSA 6) was 0.5 mg/L, the MIC50 ([1]; Table G, 10 strains) was 2 mg/L and the MIC90 ([1]; Table G, 10 strains) was 8 mg/L. For the same substance, the “Range of MICs” value ([1]; Table G, 10 strains) was 0.5 to 8 mg/L, the “MICs with two weeks old dimer solution vs. original screen” value (Staphylococcus species) was “MICs appeared to be significantly higher” and the MBC ([2]; Table D, Staneg 1, skipped wells) was > 16. For the same substance, the MBC ([2]; Table D, Staneg 2, skipped wells) was > 4, the MBC ([2]; Table D, Staneg 3) was 16 and the MBC ([2]; Table D, Staneg 4) was > 16. For the same substance, the MBC ([2]; Table D, Staneg 5, skipped wells) was 16, the MBC ([2]; Table D, Staneg 6) was 8 and the MBC ([2]; Table D, Staneg 7, skipped wells) was > 16. The MBC ([2]; Table D, Staneg 8) was 16, the MBC ([2]; Table F, Staneg 1) was > 1.0 and the MBC ([2]; Table F, Staneg 4, skipped wells) was > 16. It also gave an MBC ([2]; Table F, Staneg 7) of 1.0.
